Assay results: ChEMBL document CHEMBL3817774, “Pterostilbene-mediated Nrf2 activation: Mechanistic insights on Keap1:Nrf2 interface” (Bioorg Med Chem, 2016)

Experiments:
Format in all cases: cell-based
[1] = target: T1, Keap1/Nrf2 (Homo sapiens) (UniProt Q16236+Q14145); test: Inhibition of Nrf2-Keap1 (unknown origin) interaction co-expressed in HEK293T cells using D-luciferin as substrate assessed as decrease in luciferase signal intensity incubated for 24 hrs by bioluminescence-based IVIS imaging analysis; settings: HEK-293T
[2] = target: T1, Keap1/Nrf2 (Homo sapiens); test: Inhibition of Nrf2-Keap1 (unknown origin) interaction co-expressed in HEK293T cells using D-luciferin as substrate assessed as decrease in luciferase signal intensity at 0.5 to 10 uM by bioluminescence-based IVIS imaging analysis; settings: HEK-293T, TDE = time-dependent effect
[3] = target: T2, Nuclear factor erythroid 2-related factor 2 (Mus musculus) (UniProt Q60795); test: Activation of Nrf2 in mouse MIN6 cells assessed as decrease in cytoplasmic Nrf2 fraction by Western blot analysis
T2 sequence (whole entry): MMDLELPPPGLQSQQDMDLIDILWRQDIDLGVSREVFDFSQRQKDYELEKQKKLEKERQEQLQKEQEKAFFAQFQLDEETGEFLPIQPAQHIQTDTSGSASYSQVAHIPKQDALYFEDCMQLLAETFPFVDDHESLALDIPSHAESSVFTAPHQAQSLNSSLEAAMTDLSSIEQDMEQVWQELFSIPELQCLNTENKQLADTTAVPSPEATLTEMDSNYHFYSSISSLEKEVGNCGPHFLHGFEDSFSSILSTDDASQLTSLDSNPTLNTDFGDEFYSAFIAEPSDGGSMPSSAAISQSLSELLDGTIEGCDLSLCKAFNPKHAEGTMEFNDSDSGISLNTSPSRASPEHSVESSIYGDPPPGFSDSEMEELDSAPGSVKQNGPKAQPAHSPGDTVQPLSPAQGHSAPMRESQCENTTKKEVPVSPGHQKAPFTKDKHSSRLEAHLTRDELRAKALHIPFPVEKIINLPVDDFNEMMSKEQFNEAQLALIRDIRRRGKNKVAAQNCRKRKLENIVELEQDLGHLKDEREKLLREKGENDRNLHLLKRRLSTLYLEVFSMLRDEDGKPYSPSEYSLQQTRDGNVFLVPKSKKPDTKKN

[4] = target: T2, Nuclear factor erythroid 2-related factor 2 (Mus musculus); test: Activation of Nrf2 in mouse MIN6 cells assessed as increase in nuclear Nrf2 translocation by Western blot analysis
[5] = target: T2, Nuclear factor erythroid 2-related factor 2 (Mus musculus); test: Activation of Nrf2 in mouse MIN6 cells assessed as upregulation of GST1-ARE-luciferase incubated for 8 hrs by luminometric assay relative to control
[6] = target: T2, Nuclear factor erythroid 2-related factor 2 (Mus musculus); test: Activation of Nrf2 in mouse MIN6 cells assessed as upregulation of human NQO1-ARE-luciferase incubated for 8 hrs by luminometric assay relative to control

T1 sequence (Q14145 whole entry, looked up): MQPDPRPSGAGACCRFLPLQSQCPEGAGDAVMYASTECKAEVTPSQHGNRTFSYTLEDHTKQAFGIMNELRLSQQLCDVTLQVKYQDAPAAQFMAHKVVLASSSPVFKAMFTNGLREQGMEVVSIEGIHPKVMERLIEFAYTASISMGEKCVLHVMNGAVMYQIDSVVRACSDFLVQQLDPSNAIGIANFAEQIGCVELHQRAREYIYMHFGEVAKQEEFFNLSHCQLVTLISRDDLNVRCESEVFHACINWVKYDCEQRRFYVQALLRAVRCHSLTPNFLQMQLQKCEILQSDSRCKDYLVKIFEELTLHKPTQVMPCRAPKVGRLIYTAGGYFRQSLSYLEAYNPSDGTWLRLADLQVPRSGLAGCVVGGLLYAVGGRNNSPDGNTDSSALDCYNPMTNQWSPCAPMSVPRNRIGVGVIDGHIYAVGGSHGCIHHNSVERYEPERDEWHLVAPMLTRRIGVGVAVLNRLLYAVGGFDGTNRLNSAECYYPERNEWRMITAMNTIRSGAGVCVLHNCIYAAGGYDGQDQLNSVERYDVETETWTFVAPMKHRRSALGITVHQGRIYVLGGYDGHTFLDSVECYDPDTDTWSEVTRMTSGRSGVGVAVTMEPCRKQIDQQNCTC
T1 sequence (Q16236 whole entry, looked up): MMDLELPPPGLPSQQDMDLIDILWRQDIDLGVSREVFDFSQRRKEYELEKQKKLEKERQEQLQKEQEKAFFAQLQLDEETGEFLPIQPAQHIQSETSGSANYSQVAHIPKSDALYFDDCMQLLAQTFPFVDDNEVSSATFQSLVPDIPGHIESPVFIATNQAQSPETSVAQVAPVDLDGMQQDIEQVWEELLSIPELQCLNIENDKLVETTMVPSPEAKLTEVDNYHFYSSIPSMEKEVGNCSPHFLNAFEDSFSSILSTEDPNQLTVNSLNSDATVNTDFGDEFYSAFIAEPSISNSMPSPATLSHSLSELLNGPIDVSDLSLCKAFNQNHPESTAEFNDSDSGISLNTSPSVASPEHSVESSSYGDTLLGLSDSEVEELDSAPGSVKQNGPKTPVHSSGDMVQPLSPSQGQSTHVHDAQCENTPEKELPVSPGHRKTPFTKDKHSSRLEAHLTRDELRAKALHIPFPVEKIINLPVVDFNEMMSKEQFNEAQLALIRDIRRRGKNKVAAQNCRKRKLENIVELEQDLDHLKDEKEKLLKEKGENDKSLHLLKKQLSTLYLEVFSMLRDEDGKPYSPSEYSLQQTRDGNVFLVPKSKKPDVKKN

inhibition [1]: Dose-dependent effect | inhibition [2]: tde | Activity [3]: Dose-dependent effect | Activity [4]: Dose-dependent effect | Activity [5]: Dose-dependent effect | fold change (FC) [5]: 2 | Activity [6]: Dose-dependent effect | fold change (FC) [6]: 2
Structure (SMILES): COc1cc(/C=C/c2ccc(O)cc2)cc(OC)c1
